Values quoted from earlier work, collected in US10980856B2, “Composition and method for treating plantar fasciitis in humans” (priority 2017, dated 2021).

Experiments:
[1] = tested on: Balb/c mice injected with histamine; conditions: applied immediately after histamine injection
[2] = tested on: human peripheral blood monocytes; conditions: after 40 hours

Structure (SMILES)	histamine-induced skin edema [1]	superoxide production by agonist-stimulated monocytes (monocytes)	inhibition of lipopolysaccharide-induced production of IL-10 [2] [%]	inhibition of lipopolysaccharide-induced production of TNF-α [2] [%]	inhibition of lipopolysaccharide-induced production of interleukin-1b (IL-1b) [2] [%]	inhibition of lipopolysaccharide-induced production of prostaglandin E2 [2] [%]
CC1=CCC(O)(C(C)C)CC1 (stereo not shown) [terpinen-4-ol]	reduced	suppress	50	50	50	30
CC1=CC[C@@H](C(C)(C)O)CC1 [a-terpineol]		suppress				
